Measured values as given in paper PMC7351026, “Serum Half-Lives for Short- and Long-Chain Perfluoroalkyl Acids after Ceasing Exposure from Drinking Water Contaminated by Firefighting Foam” (Environmental Health Perspectives, 2020).
Several values for one entry are separate records, joined by “and”; a condition that tells them apart may be missing. Equal entries are not always repeated.

How the values were obtained:
[1] = Individual serum elimination rate and half-life (linear regression per employee); conditions: individual estimate; for half-life: human, serum, oral, HL (half-life)
Procedure, shortened: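 One-compartment, first-order model: for each employee and PFAS, the slope β of log serum concentration versus elapsed days (from clean water supply, over five samplings) gave k = −β and half-life = ln2/k. A positive slope left the half-life undetermined.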

[2] = PFAS levels in serum samples of airport employees (LC/MS/MS)
Procedure, shortened: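 LC/MS/MS quantification (BEH C18, 5 mM ammonium acetate water:methanol to methanol gradient) after protein precipitation of 25 μL serum with isotopically labeled internal standards, FBS-matrix calibration. Samples stored at −80°C, collected at monthly intervals from September 2018 and run together in a single batch.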

[3] = 1st sampling (September 2018), count 17
[4] = 2nd sampling (October 2018), count 17
[5] = 3rd sampling (November, 2018), count 17
[6] = 4th sampling (December 2018), count 16
[7] = 5th sampling (January 2019), count 16
[8] = first serum samples, all 26 airport employees
[9] = median of first serum samples, all 26 airport employees

O=S(=O)(O)C(F)(F)C(F)(F)C(F)(F)C(F)(F)C(F)(F)C(F)(F)F [PFHxS, perfluorohexane sulfonic acid]
half-life ([1]; subject 1, 5 samples): 1280 days | half-life ([1]; subject 2, 5 samples): 730 days | half-life ([1]; subject 3, 5 samples): 548 days | half-life ([1]; subject 4, 5 samples): 3510 days | half-life ([1]; subject 5, 5 samples): 1720 days | half-life ([1]; subject 7, 5 samples): 840 days | half-life ([1]; subject 10, 5 samples): 694 days | half-life ([1]; subject 11, 5 samples): 1100 days | half-life ([1]; subject 12, 5 samples): 584 days | half-life ([1]; subject 13, 5 samples): 511 days | half-life ([1]; subject 14, 4 samples): 438 days | half-life ([1]; subject 15, 5 samples): 804 days | half-life ([1]; subject 16, 5 samples): 6940 days | half-life ([1]; subject 17, 5 samples): 584 days | Elimination rate ([1]; subject 1, 5 samples): 0.2 yearly | Elimination rate ([1]; subject 2, 5 samples): 0.3 yearly | Elimination rate ([1]; subject 3, 5 samples): 0.5 yearly | Elimination rate ([1]; subject 4, 5 samples): 0.1 yearly | Elimination rate ([1]; subject 5, 5 samples): 0.1 yearly | Elimination rate ([1]; subject 6, 4 samples): −0.1 yearly | Elimination rate ([1]; subject 7, 5 samples): 0.3 yearly | Elimination rate ([1]; subject 8, 5 samples): −0.01 yearly | Elimination rate ([1]; subject 9, 5 samples): −0.04 yearly | Elimination rate ([1]; subject 10, 5 samples): 0.4 yearly | Elimination rate ([1]; subject 11, 5 samples): 0.2 yearly | Elimination rate ([1]; subject 12, 5 samples): 0.4 yearly | Elimination rate ([1]; subject 13, 5 samples): 0.5 yearly | Elimination rate ([1]; subject 14, 4 samples): 0.6 yearly | Elimination rate ([1]; subject 15, 5 samples): 0.3 yearly | Elimination rate ([1]; subject 16, 5 samples): 0.04 yearly | Elimination rate ([1]; subject 17, 5 samples): 0.4 yearly | Serum PFAS level, 25 percentile [2, 3]: 63 | Serum PFAS level, 75 percentile [2, 3]: 155 | Serum PFAS level, Max [2, 3]: 402 | Serum PFAS level, Median [2, 3]: 133 | Serum PFAS level, Min [2, 3]: 21 | Serum PFAS level, 25 percentile [2, 4]: 57 | Serum PFAS level, 75 percentile [2, 4]: 144 | Serum PFAS level, Max [2, 4]: 363 | Serum PFAS level, Median [2, 4]: 122 | Serum PFAS level, Min [2, 4]: 18 | Serum PFAS level, 25 percentile [2, 5]: 57 | Serum PFAS level, 75 percentile [2, 5]: 150 | Serum PFAS level, Max [2, 5]: 392 | Serum PFAS level, Median [2, 5]: 119 | Serum PFAS level, Min [2, 5]: 20 | Serum PFAS level, 25 percentile [2, 6]: 50 | Serum PFAS level, 75 percentile [2, 6]: 146 | Serum PFAS level, Max [2, 6]: 381 | Serum PFAS level, Median [2, 6]: 109 | Serum PFAS level, Min [2, 6]: 17 | Serum PFAS level, 25 percentile [2, 7]: 64 | Serum PFAS level, 75 percentile [2, 7]: 153 | Serum PFAS level, Max [2, 7]: 399 | Serum PFAS level, Median [2, 7]: 117 | Serum PFAS level, Min [2, 7]: 42 | Serum level in the first samples, median (range) ([2]; all 26 airport employees): 76 (17–402) ng/mL | PFAS in first serum sample, median (range) ([2]; employees participated in first blood sampling and repeated blood and urine sampling, N=17): 133 (21–402) ng/mL | PFAS in first serum sample, median (range) ([2]; employees participated in first blood sampling only, N=9, 11-14 d after end of exposure): 60 (17–85) ng/mL | Initial serum PFAS level, max ([2]; females (N=7)): 183 ng/mL | Initial serum PFAS level, median ([2]; females (N=7)): 74 ng/mL | Initial serum PFAS level, min ([2]; females (N=7)): 21 ng/mL | Relative composition of PFAS in serum, molar concentration basis [2, 8]: 70.4% and 70% | Relative composition of PFAS in serum, weight basis [2, 8]: 68.9% | Initial serum PFAS level, Max ([2]; males (N=19)): 402 ng/mL | Initial serum PFAS level, Min ([2]; males (N=19)): 17 ng/mL | Initial serum PFAS level, median ([2]; males (N=19)): 78 ng/mL | Serum concentration, molar basis [2, 9]: 0.19 | Serum concentration, weight basis [2, 9]: 76 | Serum level, median (range) ([2]; second to fifth samplings, 17 airport employees): 118 (17–399) ng/mL
